One data set concerns thrombus formation. As to the kind of experiment: Rat venous thrombosis model (thromboplastin infusion and vena cava stasis, clot weight). It counts as in vivo, Male Sprague-Dawley rats. Particulars: 1 mg/kg iv bolus 5 min before thromboplastin infusion. The protocol:
In vivo Studies of the Compounds Claimed Herein Were Conducted Using the Following Procedure
Male Sprague-Dawley rats (body weights 250-300 g, 3-4/group) were anaesthetized by intraperitoneal injection with urethane solution (1.25 g/kg). […] The venae iliolumbar and spermatica were ligated with a silk thread. Thrombus formation was initiated by infusion of a thromboplastin preparation (Simplastin®) using an infusion pump (Model 100, IITC Life Science, USA) via the left femoral vein at 0.5 mL/kg/min. Simplastin® (Organon Teknika, USA) was reconstituted with 4 mL of distilled water and then given diluted at 1:2.5 in distilled water. At the start of infusion for 30 seconds, the vena cava was ligatured below the left renal vein. After the end of infusion, vena cava was also ligatured above the iliac veins 16 mm apart from upper ligature. After 15 min of stasis, the thrombus formed inside the vessel was carefully removed and weighed. Before wighing, the excess blood was removed by blotting the wet clot on the wet Whatman filter paper (see, Millet, J.; Theveniaux, J.; Brown, N. L. Thromb. Haemost. 1992, 67, 176).
Saline (control) or test compounds (1 mg/kg) were injected as a bolus via the femoral vein starting 5 min before the thromboplastin infusion. Bolus injection volume was 0.5 mL/kg. Antithrombotic activity was expressed as a percentage where: Antithrombotic activity (%)=100×(A−B)/A • A=mean clot weight of control group • B=mean clot weight of test compound group

Data set [1] can be described thus: Pharmacokinetic study for oral bioavailability in rats. It counts as in vivo, Male Sprague-Dawley rats. Particulars: oral dosing in rats, 30 mg/kg. The protocol:
Pharmacokinetic Studies for Determining Oral Bioavailability
Male Sprague-Dawley rats (250-300 g) were restrained individually in a surgical plate (Dae Jong Instrument Company, Seoul, Korea) as supine position. The femoral artery and the femoral vein (iv only) of rats were cannulated with polyethylene tubing (PE-50, Clay Adams, Parsippany, N.J., USA) under light ether anesthesia. After complete recovery from anesthesia, rats were given 30 mg/kg of test compound dissolved in distilled water via oral gavage or given 10 mg/kg via the femoral vein for intravenous (iv) study. Blood samples (0.25 mL) were collected from the femoral artery at 0 (for control), 1 (iv only), 5, 15, 30, 60, 90 (iv only), 120, 180, and 240 min after dosing.
Blood samples were taken into heparinized tube (25 U/mL), deproteinized with 2 volumes of methanol, and centrifuged. The resulting supernatant (60 μL) was analyzed by HPLC eluting with a mixture of 0.1% trifluoroacetic acid aqueous solution and acetonitrile with a ratio of 81% to 19%. Plasma concentration of test compound was recorded and used to calculate the pharmacokinetic parameters: maximum plasma concentration of test compound (Cmax), time of maximum plasma concentration (Tmax) area under the curve (AUC), and fraction of test compound absorbed (F).
Table 2 illustrates the pharmacokinetic results for some exemplary compounds of invention obtained upon oral dosing in rats.

Data set [2] concerns the target T1, Thrombin prepared from human plasma (Homo sapiens, UniProt P00734).
T1 construct: Thrombin used in this test was prepared from human plasma; from tissue; host or cells: human plasma
The experiment in a line: In vitro enzyme assay for thrombin inhibition constants (Chromozym TH substrate, Dixon plot). The class given is biochemical. Particulars: pH 7.8, room temperature. The protocol:
In vitro Enzyme Assays for Determining Inhibition Constants
The activity of thrombin was measured spectrophotometrically using tosyl-Gly-Pro-Arg-p-nitroanilide acetate (Chromozym TH, Boehringer Mannheim) as a substrate. […] Each compound was dissolved in DMSO to make a 1 mM stock solution and dilutions were made thereof with assay buffer (0.1 M Tris HCl, 0.15 M NaCl, 0.1% polyethylene glycol 8000, pH 7.8). Different concentrations of inhibitor were mixed with […] of thrombin in 0.8 mL of the buffer. The mixture was incubated for 10 min at room temperature before adding 0.2 mL of the substrate to a final concentration of 20 μM. […] A graph for the reciprocal value of initial velocity to the inhibitor concentration was derived from progress curves by fitting the data using a linear regression program.

Setting [3] is: male, Sprague-Dawley, rat, plasma.
The mark [4] stands for this setting: male, Sprague-Dawley, rat, plasma, read-out: Cmax.

The results in this text go back to patent US6864249B2, “Piperidine and azetidine thrombin inhibitors” (LG Life Sciences, Ltd., priority 1998, dated 2005).

Counter-ions that a name gives are not always drawn. Like-named read-outs stand apart in the source and are kept apart here.

For `N=C(N)c1ccc(CNC(=O)[C@@H]2CCCN2C(=O)[C@H](NS(N)(=O)=O)C(c2ccccc2)c2ccccc2)s1` [Example 1, N-aminosulfonyl-D-diphenylalanyl-L-prolyl-[(5-amidino-2-thienyl)methyl]amide.TFA], in the data set with thrombus formation, the “Antithrombotic activity (inhibition of thrombus formation)” value amounted to 100%. Besides, the Tmax in data set [1] (setting [3]) was 60 min. Further, the AUC in data set [1] (male, Sprague-Dawley, rat, plasma, read-out: AUC (converted)) was 4220 ng·h/mL. The Cmax in data set [1] was 2200 ng/mL.

In the case of `CS(=O)(=O)N[C@@H](C(=O)N1CCC[C@H]1C(=O)NCc1ccc(C(=N)N)s1)C(c1ccccc1)c1ccccc1` [Example 3, N-methylsulfonyl-D-diphenylalanyl-L-prolyl-[(5-amidino-2-thienyl)methyl]amide.TFA], the “Antithrombotic activity (inhibition of thrombus formation)” value in the data set with thrombus formation turned out to be 100%. In addition, the Ki in data set [2] was found to be 0.004 nM.

`N=C(N)c1csc(CNC(=O)[C@@H]2CCCN2C(=O)[C@H](NS(N)(=O)=O)C(c2ccccc2)c2ccccc2)c1` [Example 11, N-aminosulfonyl-D-diphenylalanyl-L-prolyl-[(4-amidino-2-thienyl)methyl]amide.TFA]: the “Antithrombotic activity (inhibition of thrombus formation)” value with thrombus formation is 100%. The Tmax in data set [1] (setting [3]) is 45 min. For the same compound, in data set [1] (setting [4]), the Cmax turned out to be 2100 ng/mL. The AUC in data set [1] was determined as 4230 ng·h/mL. In data set [2], this compound yielded a Ki of 0.022 nM.

With `N=C(N)c1cc(CNC(=O)[C@@H]2CCCN2C(=O)[C@H](NS(N)(=O)=O)C(c2ccccc2)c2ccccc2)cs1` [Example 15, N-aminosulfonyl-D-diphenylalanyl-L-prolyl-[(5-amidino-3-thienyl)methyl]amide.TFA], the “Antithrombotic activity (inhibition of thrombus formation)” value with thrombus formation came out at 100%. Also, the inhibitory constant (Ki) in data set [2] was 0.056 nM.

For the compound `COC(=O)N[C@@H](C(=O)N1CCC[C@H]1C(=O)NCc1csc(C(=N)N)c1)C(c1ccccc1)c1ccccc1` [Example 19, N-methoxycarbonyl-D-diphenylalanyl-L-prolyl-[(5-amidino-3-thienyl)methyl]amide.TFA], in the data set with thrombus formation, the “Antithrombotic activity (inhibition of thrombus formation)” value came to 100%. Besides, the Tmax in data set [1] (setting [3]) was 80 min. The Cmax in data set [1] (setting [4]) was 5200 ng/mL. In data set [1], this compound showed an AUC of 21620 ng·h/mL. The same compound yielded a Ki in data set [2] of 0.06 nM.

As for `N=C(N)c1ccc(CNC(=O)[C@@H]2CCCN2C(=O)[C@H](NCC(=O)O)C(c2ccccc2)c2ccccc2)s1` [Example 29, N-carboxymethyl-D-diphenylalanyl-L-prolyl-[(5-amidino-2-thienyl)methyl]amide.2TFA], in the data set on thrombus formation, the “Antithrombotic activity (inhibition of thrombus formation)” value worked out at 100%. The Tmax in data set [1] (setting [3]) was 15 min. In addition, in data set [1], the AUC amounted to 23170 ng·h/mL and the Cmax was 9500 ng/mL. Moreover, the Ki in data set [2] came out at 0.015 nM.

Turning to `N=C(N)c1csc(CNC(=O)[C@@H]2CCCN2C(=O)[C@H](NCC(=O)O)C(c2ccccc2)c2ccccc2)n1` [Example 40, N-carboxymethyl-D-diphenylalanyl-L-prolyl-[(4-amidino-2-thiazolyl)methyl]amide.2TFA], the Tmax in data set [1] (setting [3]) was 25 min. Moreover, in data set [1], the AUC is 18770 ng·h/mL and the Cmax came out at 11100 ng/mL. The affinity in data set [2] corresponds to a Ki of 0.6 nM.

Consider `N=C(N)c1ccc(CNC(=O)[C@@H]2CCCN2C(=O)[C@H](NCCC(=O)O)C(c2ccccc2)c2ccccc2)s1` [Example 41, N-(2-carboxyethyl)-D-diphenylalanyl-L-prolyl-[(5-amidino-2-thienyl)methyl]amide.2TFA], for which the “Antithrombotic activity (inhibition of thrombus formation)” value in the data set on thrombus formation is reported as 100%. The time of peak concentration (Tmax) in data set [1] (setting [3]) was 20 min. In data set [1], this compound registered an AUC of 8380 ng·h/mL and a Cmax of 4900 ng/mL. Further, the Ki in data set [2] is 0.011 nM.

The term Tmax denotes the time from dosing to the highest level. By AUC is commonly meant concentration integrated over time. A word on the Cmax: it is the highest concentration seen after dosing. The term Ki denotes the equilibrium dissociation constant of an inhibitor or competing ligand from its target. The low end stands for tighter binding, the high end for weaker binding.
